Literature values, collected in patent publication US11478001B2, “Methods of administering a pre-operative carbohydrate-rich beverage composition” (ClearFast Inc., priority 2014, dated 2022).

Conditions: short-term oral administration

For `NC(=O)NCCC[C@H](N)C(=O)O` [L-citrulline], the safety and tolerability is listed as “safe and well tolerated”.
